# Measurements as given in patent US12453782B2, “Antibody-oligonucleotide conjugate” (priority 2018, dated 2025).
# Tests used:
# [1] = tested on: HER14 cells (fibroblasts stably transfected with the human epidermal growth factor receptor); assay: Viability assay (MTT) with HER14 cells, dianthin-EGF, SA1641 and polymeric structure (Example 11); assay type: cell-based; conditions: 72 h
# Procedure: To test the efficacy of the invention, we conducted a viability assay with HER14 cells. These cells are fibroblasts stably transfected with the human epidermal growth factor receptor and therefore target cells for the targeted toxin dianthin-EGF. HER14 cells (2,000 cells/100 μL/well) were seeded into wells of 96-well-cell culture plates and incubated for 24 h in DMEM medium supplemented with 10% fetal calf serum and 1% penicillin/streptomycin at 37° C., 5% CO2 and 98% humidity. The different test substances (see results and FIG. 21) were then added in triplicates in a volume of 25 μL and supplemented with further 25 μL of medium. After an incubation of 72 h, 30 μL 3-(4,5-dimethylthiazol-2-yl)-2,5-diphenyltetrazolium bromide (0.5 mg/mL in water) was added per well and incubated for 2 h. Thereafter, the medium was carefully removed and replaced by an aqueous solution containing 10% (v/v) isopropanol, 5% (w/v) sodium dodecyl sulfate and 400 mM HCl, and incubated for 5 min. Solubilized formazan was photometrically quantitated at […] in a microplate reader (Spectra MAX 340 PC, Molecular Devices, Sunnyvale, CA, USA). Untreated cells were normalized to 1 and all samples referred to the untreated control. Significance was determined by unpaired two-sample t-tests.
# [2] = pH dependent hydrolysis of the hydrazone bond of SO1861-EMCH (MALDI-TOF-MS); assay type: physicochemical; conditions: HCl solution at pH 3, two points in time
# [3] = tested on: HeLa cells; assay: Co-administration of PAMAM, dendron or chloroquine with dianthin-EGF and SO1861 on HeLa cells (inhibition of endosomal escape, cell viability); assay type: cell-based, human; conditions: 500 nM PAMAM, PAMAM derivatives or chloroquine, 667 nM dendron, various SO1861 concentrations
# Excerpt: As control for the inhibition of endosomal acidification chloroquine was used.
# [4] = newly diagnosed glioblastoma (ABT-414); platinum-resistant ovarian cancer (IMGN853); cited from earlier work
# [5] = tested on: SK-BR-3, JIMT-1, MDA-MB-468, A431, CaSki, HeLa, A2058; assay: Control treatments, relative cell viability on various cancer cell lines (Example 4, FIG. 8); assay type: cell-based, human; conditions: wide range of toxin concentrations, up to 100.000 pM
# Procedure: After treatment the cells were incubated for 72 hr at 37° C. before the cell viability was determined by a MTS-assay, performed according to the manufacturer's instruction (CellTiter 96® AQueous One Solution Cell Proliferation Assay, Promega). Briefly, the MTS solution was diluted 20× in DMEM without phenol red (PAN-Biotech GmbH) supplemented with 10% FBS (PAN-Biotech GmbH). The cells were washed once with 200 μL PBS per well, after which 100 μL diluted MTS solution was added per well. The plate was incubated for approximately 20-30 minutes at 37° C. Subsequently, the optical density at 492 nm was measured on a Thermo Scientific Multiskan FC plate reader (Thermo Scientific). For quantification the background signal of ‘medium only’ wells was subtracted from all other wells, before the ratio of untreated/treated cells was calculated, by dividing the background corrected signal of untreated wells over the background corrected signal of the treated wells.
compound,measurement,setting,value
C[C@@H]1O[C@@H](O[C@H]2[C@H](OC(=O)[C@]34CCC(C)(C)C[C@H]3C3=CC[C@@H]5[C@@]6(C)CC[C@H](O[C@H]7O[C@H](C(=O)O)[C@@H](O)[C@H](O[C@@H]8OC[C@@H](O)[C@H](O)[C@H]8O)[C@H]7O[C@@H]7O[C@H](CO)[C@H](O)[C@H](O)[C@H]7O)[C@@](C)(C=O)[C@@H]6CC[C@@]5(C)[C@]3(C)CC4)O[C@H](C)[C@H](O[C@@H]3O[C@H](C)[C@@H](O)[C@H](O)[C@H]3O)[C@@H]2O)[C@H](O)[C@H](O)[C@H]1O[C@@H]1OC[C@@H](O)[C@H](O[C@@H]2OC[C@@H](O)[C@H](O)[C@H]2O)[C@H]1O [SA1641],effect on cells of 0.1 nM dianthin-EGF in the presence of SA1641,[1],death of all cells
CC(=O)OC1C(C)OC(OC2C(C)OC(OC(=O)[C@]34CCC(C)(C)CC3C3=CCC5[C@@]6(C)CC[C@H](OC7OC(C(=O)O)C(O)C(OC8OCC(O)C(O)C8O)C7OC7OC(CO)C(O)C(O)C7O)[C@@](C)(/C=N/NC(=O)CCCCCN7C(=O)C=CC7=O)C6CC[C@@]5(C)[C@]3(C)C[C@H]4O)C(OC3OC(C)C(OC4OCC(O)C(OC5OC(CO)C(O)C(O)C5O)C4O)C(O)C3O)C2O)C(O)C1OC1OCC(O)C(O)C1O (stereo partly drawn) [SO1861-EMCH],hydrolysis of the hydrazone bond,[2],responsive towards hydrolysis and gets cleaved
CCN(CC)CCCC(C)Nc1ccnc2cc(Cl)ccc12 (stereo not drawn) [chloroquine],effect on SO1861-mediated endosomal escape of the targeted toxin (dianthin-EGF) and cell killing,[3],inhibit the SO1861-mediated endosomal escape of the targeted toxin and subsequent cell killing
"depatuxizumab mafodotin: EGFR targeted ADC, AbbVie",survival benefit in phase 3 trials,[4],no survival benefit
"mirvetuximab soravtansine: folate receptor alpha targeted ADC, ImmunoGen",survival benefit in phase 3 trials,[4],no survival benefit
saporin,influence on cell viability,[5],do not or hardly have any influence on cell viability
